Earlier results as cited in patent US9198988B2, “Nanoparticulate manganese MRI contrast agents” (Kent State University, priority 2011, dated 2015).

Experiments:
[1] = commercial MRI contrast agents
[2] = commercial MRI contrast agents; remark: listed apart in the source

Row | Compound | r1 (relaxivity) [1] [mM⁻¹ s⁻¹] | LogKGdL (stability constant) [2]
1 | O=C([O-])CN1CCN(CC(=O)[O-])CCN([C@H](CO)[C@H](O)CO)CCN(CC(=O)[O-])CC1.[Gd+3] (racemic) [Gadovist ®] | 5.3 | 20.8
2 | CNC[C@H](O)[C@@H](O)[C@H](O)[C@H](O)CO.O=C([O-])CN1CCN(CC(=O)[O-])CCN(CC(=O)O)CCN(CC(=O)[O-])CC1.[Gd+3] [Dotarem ®] | 4.2 | 25.3
3 | CNC[C@H](O)[C@@H](O)[C@H](O)[C@H](O)CO.CNC[C@H](O)[C@@H](O)[C@H](O)[C@H](O)CO.O=C([O-])CN(CCN(CC(=O)[O-])CC(=O)O)CCN(CC(=O)[O-])CC(=O)O.[Gd+3] [Magnevist ®] | 4.3 | 22.2
4 | CNC[C@H](O)[C@@H](O)[C@H](O)[C@H](O)CO.CNC[C@H](O)[C@@H](O)[C@H](O)[C@H](O)CO.O=C([O-])CN(CCN(CC(=O)[O-])CC(=O)O)CCN(CC(=O)O)C(COCc1ccccc1)C(=O)[O-].[Gd+3] (centres unmarked) [MultiHance] | 6.7 | 18.4
5 | CNC(=O)CN(CCN(CCN(CC(=O)[O-])CC(=O)NC)CC(=O)[O-])CC(=O)[O-].[Gd+3] [Omniscan ®] | 4.6 | 16.8
6 | COCCNC(=O)CN(CCN(CCN(CC(=O)[O-])CC(=O)NCCOC)CC(=O)[O-])CC(=O)[O-].[Gd+3] [OptiMARK] | 5.2 | 16.8
7 | CCOc1ccc(CC(CN(CCN(CC(=O)[O-])CC(=O)[O-])CC(=O)[O-])N(CC(=O)[O-])CC(=O)[O-])cc1.[Gd+3].[Na+].[Na+] (centres unmarked) [Primovist] | 7.3 | 23.5
8 | CC(O)CN1CCN(CC(=O)[O-])CCN(CC(=O)[O-])CCN(CC(=O)[O-])CC1.[Gd+3] (centres unmarked) [ProHance ®] | 4.4 | –
9 | O=C([O-])CN(CCN(CC(=O)[O-])CC(COP(=O)([O-])OC1CCC(c2ccccc2)(c2ccccc2)CC1)N(CC(=O)[O-])CC(=O)[O-])CC(=O)[O-].[Gd+3].[Na+].[Na+].[Na+] (centres unmarked) [Vasovist] | 19 | 23.2
